Source: patent US9156872B2, “2′-azido substituted nucleoside derivatives and methods of use thereof for the treatment of viral diseases” (priority 2011, dated 2015)
pEC50: −log10 of the molar value. Like-named read-outs stand apart in the source and are kept apart here.

Tested on: HCV replicon cells
Assay: Cell-based HCV replicon assay (replicon RNA by Taqman real time PCR)
Settings: read-out: 1b EC50
[1] = Hepatitis C virus, 72 h, HCV replicon 1b, cells harvested on day 3
[2] = HCV replicon 1b, cells harvested on day 3

SMILES | pEC50 | pEC50 (Hepatitis C virus, 72 h) | other results
CCOc1nc(N)nc2c1ncn2[C@@H]1O[C@H](COP(=O)(N[C@@H](C)C(=O)OCC(C)(C)C)Oc2ccccc2)[C@@H](O)[C@@]1(C)N=[N+]=[N-] (single isomer, unassigned) [Compound 161] | 5.77 | – | –
CC(C)OC(=O)[C@H](C)NP(=O)(OC[C@H]1O[C@@H](n2ccc(N)nc2=O)[C@](C)(N=[N+]=[N-])[C@@H]1O)Oc1ccccc1Cl (stereo partly drawn) [Compound 96] | 6.22 | – | –
CCCCOC(=O)[C@H](C)NP(=O)(OC[C@H]1O[C@@H](n2ccc(=O)[nH]c2=O)[C@](C)(N=[N+]=[N-])[C@@H]1O)Oc1ccc(F)cc1 (stereo partly drawn) [Compound 367] | – | 5.48 | –
CCCCOC(=O)[C@H](C)NP(=O)(OC[C@H]1O[C@@H](n2ccc(N)nc2=O)[C@](C)(N=[N+]=[N-])[C@@H]1O)Oc1cccc2ccccc12 (stereo partly drawn) [Compound 3] | – | 5.92 | –
COC(=O)[C@H](C)NP(=O)(OC[C@H]1O[C@@H](n2cnc3c(OC)nc(N)nc32)[C@](C)(N=[N+]=[N-])C1O)Oc1cccc2ccccc12 (single isomer, unassigned) [Compound 254] | – | 6.00 | –
COC(=O)[C@H](C)NP(=O)(OC[C@H]1O[C@@H](n2ccc(N)nc2=O)[C@](C)(N=[N+]=[N-])[C@@H]1O)Oc1ccccc1Cl (stereo partly drawn) [Compound 93] | – | 4.92 | –
COc1nc(N)nc2c1ncn2[C@@H]1O[C@@H]2COP(=O)(OC3CCC3)O[C@H]2[C@@]1(C)N=[N+]=[N-] (single isomer, unassigned) [Compound 102] | – | – | pEC50 [1]: 4.96
CCOc1nc(N)nc2c1ncn2[C@@H]1O[C@H](COP(=O)(N[C@@H](C)C(=O)OCC(C)C)Oc2ccccc2)[C@@H](O)[C@@]1(C)N=[N+]=[N-] (stereo partly drawn) [Compound 60] | 5.70 | – | –
CCCCOC(=O)[C@H](C)NP(=O)(OC[C@H]1O[C@@H](n2cnc3c(OC)nc(N)nc32)[C@](C)(N=[N+]=[N-])[C@@H]1O)Oc1ccccc1 (stereo partly drawn) [Compound 249] | – | 6.05 | –
C[C@H](NP(=O)(OC[C@H]1O[C@@H](n2ccc(=O)[nH]c2=O)[C@](C)(N=[N+]=[N-])[C@@H]1O)Oc1ccc(F)cc1)C(=O)OC1CCCCC1 (stereo partly drawn) [Compound 90] | 5.68 | – | –
COC(=O)[C@H](C)NP(=O)(OC[C@H]1O[C@@H](n2ccc(N)nc2=O)[C@](C)(N=[N+]=[N-])[C@@H]1O)Oc1ccc(F)cc1 (stereo partly drawn) [Compound 36] | – | 4.40 | –
COC(=O)[C@H](C)NP(=O)(OC[C@H]1O[C@@H](n2cnc3c(OC)nc(N)nc32)[C@](C)(N=[N+]=[N-])[C@@H]1O)Oc1ccc(F)cc1 (single isomer, unassigned) [Compound 267] | 6.15 | – | –
CCOC(=O)[C@H](C)NP(=O)(OC[C@H]1O[C@@H](n2cnc3c(OC)nc(N)nc32)[C@](C)(N=[N+]=[N-])[C@@H]1O)Oc1ccccc1 (stereo partly drawn) [Compound 250] | 6.15 | – | –
CC(C)OC(=O)[C@H](C)NP(=O)(OC[C@H]1O[C@@H](n2ccc(N)nc2=O)[C@](C)(N=[N+]=[N-])[C@@H]1O)Oc1ccccc1Cl (single isomer, unassigned) [Compound 203] | 4.70 | – | –
CCOC(=O)[C@H](C)NP(=O)(OC[C@H]1O[C@@H](n2cnc3c(OCC)nc(N)nc32)[C@](C)(N=[N+]=[N-])[C@@H]1O)Oc1ccc(Cl)cc1 (single isomer, unassigned) [Compound 352] | – | 5.96 | –
CC(C)OC(=O)[C@H](C)NP(=O)(OC[C@H]1O[C@@H](n2ccc(=O)[nH]c2=O)[C@](C)(N=[N+]=[N-])[C@@H]1O)Oc1ccccc1 (single isomer, unassigned) [Compound 157] | – | 4.31 | –
CCCCOC(=O)[C@H](C)NP(=O)(OC[C@H]1O[C@@H](n2cnc3c(OC)nc(N)nc32)[C@](C)(N=[N+]=[N-])C1O)Oc1ccccc1 (single isomer, unassigned) [Compound 262] | – | 5.62 | –
CCOc1nc(N)nc2c1ncn2[C@@H]1O[C@H](COP(=O)(N[C@@H](C)C(=O)OCc2ccccc2)Oc2ccccc2)[C@@H](O)[C@@]1(C)N=[N+]=[N-] (single isomer, unassigned) [Compound 350] | 6.00 | – | –
COC(=O)[C@H](C)NP(=O)(OC[C@H]1O[C@@H](n2ccc(=O)[nH]c2=O)[C@](C)(N=[N+]=[N-])[C@@H]1O)Oc1ccccc1Cl (stereo partly drawn) [Compound 236] | 5.19 | – | –
COC(=O)[C@H](C)NP(=O)(OC[C@H]1O[C@@H](n2ccc(N)nc2=O)[C@](C)(N=[N+]=[N-])[C@@H]1O)Oc1ccc(Cl)c(Cl)c1 (single isomer, unassigned) [Compound 194] | 4.46 | – | –
CC(C)OP1(=O)OC[C@H]2O[C@@H](n3ccc(=O)[nH]c3=O)[C@](C)(N=[N+]=[N-])[C@@H]2O1 (stereo partly drawn) [Compound 44] | – | – | pEC50 [2]: < 4.00
CCOc1nc(N)nc2c1ncn2[C@@H]1O[C@H](COP(=O)(N[C@@H](C)C(=O)OCc2ccccc2)Oc2ccccc2)[C@@H](O)[C@@]1(C)N=[N+]=[N-] (stereo partly drawn) [Compound 69] | – | 5.66 | –
CCOP1(=O)OC[C@H]2O[C@@H](n3ccc(=O)[nH]c3=O)[C@](C)(N=[N+]=[N-])[C@@H]2O1 (stereo partly drawn) [Compound 568] | < 4.00 | – | –
CCCCOC(=O)[C@H](C)NP(=O)(OC[C@H]1O[C@@H](n2cnc3c(OCC)nc(N)nc32)[C@](C)(N=[N+]=[N-])[C@@H]1O)Oc1cccc2ccccc12 (single isomer, unassigned) [Compound 172] | 6.40 | – | –

SMILES | pEC50 | pEC50 (Hepatitis C virus, 72 h) | other results
COc1nc(N)nc2c1ncn2[C@@H]1O[C@H](COP(=O)(N[C@@H](C)C(=O)OC(C)C)Oc2ccccc2Cl)[C@@H](O)[C@@]1(C)N=[N+]=[N-] (single isomer, unassigned) [Compound 281] | 4.92 | – | –
C[C@H](NP(=O)(OC[C@H]1O[C@@H](n2ccc(=O)[nH]c2=O)[C@](C)(N=[N+]=[N-])[C@@H]1O)Oc1ccc(F)cc1)C(=O)OC1CCCCC1 (single isomer, unassigned) [Compound 233] | 5.68 | – | –
CCOC(=O)[C@H](C)NP(=O)(OC[C@H]1O[C@@H](n2ccc(N)nc2=O)[C@](C)(N=[N+]=[N-])[C@@H]1O)Oc1ccccc1Cl (stereo partly drawn) [Compound 184] | 5.24 | – | –
CCOC(=O)[C@H](C)NP(=O)(OC[C@H]1O[C@@H](n2ccc(=O)[nH]c2=O)[C@](C)(N=[N+]=[N-])[C@@H]1O)Oc1ccccc1 (single isomer, unassigned) [Compound 152] | 6.30 | – | –
CC(=O)Nc1ccn([C@@H]2O[C@H](CO)[C@@H](O)[C@@]2(C)N=[N+]=[N-])c(=O)n1 [Compound 2] | – | – | pEC50 [1]: 4.12
COC(=O)[C@H](C)NP(=O)(OC[C@H]1O[C@@H](n2ccc(N)nc2=O)[C@](C)(N=[N+]=[N-])[C@@H]1O)Oc1ccccc1Cl (single isomer, unassigned) [Compound 330] | – | 4.92 | –
CCOC(=O)[C@H](C)NP(=O)(OC[C@H]1O[C@@H](n2cnc3c(OCC)nc(N)nc32)[C@](C)(N=[N+]=[N-])[C@@H]1O)Oc1ccc(Cl)cc1 (single isomer, unassigned) [Compound 353] | 6.05 | – | –
CCOc1nc(N)nc2c1ncn2[C@@H]1O[C@H](COP(=O)(N[C@@H](C)C(=O)OC(C)C)Oc2ccc(F)cc2)[C@@H](O)[C@@]1(C)N=[N+]=[N-] (single isomer, unassigned) [Compound 365] | 5.96 | – | –
CCOC(=O)[C@H](C)NP(=O)(OC[C@H]1O[C@@H](n2cnc3c(OC)nc(N)nc32)[C@](C)(N=[N+]=[N-])[C@@H]1O)Oc1ccccc1 (stereo partly drawn) [Compound 54] | 6.52 | – | –
CCOC(=O)[C@H](C)NP(=O)(OC[C@H]1O[C@@H](n2ccc(=O)[nH]c2=O)[C@](C)(N=[N+]=[N-])[C@@H]1O)Oc1ccc(Cl)cc1 (stereo partly drawn) [Compound 49] | – | 5.28 | –
C[C@H](NP(=O)(OC[C@H]1O[C@@H](n2ccc(=O)[nH]c2=O)[C@](C)(N=[N+]=[N-])[C@@H]1O)Oc1ccccc1)C(=O)OCc1ccccc1 (single isomer, unassigned) [Compound 301] | 5.57 | – | –
CCCCOC(=O)[C@H](C)NP(=O)(OC[C@H]1O[C@@H](n2ccc(=O)[nH]c2=O)[C@](C)(N=[N+]=[N-])[C@@H]1O)Oc1ccccc1 (stereo partly drawn) [Compound 26] | – | 6.22 | –
COc1nc(N)nc2c1ncn2[C@@H]1O[C@H](COP(=O)(N[C@@H](C)C(=O)OC(C)C)Oc2ccc(Cl)c(Cl)c2)[C@@H](O)[C@@]1(C)N=[N+]=[N-] (single isomer, unassigned) [Compound 283] | 5.08 | – | –
C[C@H](NP(=O)(OC[C@H]1O[C@@H](n2ccc(N)nc2=O)[C@](C)(N=[N+]=[N-])[C@@H]1O)Oc1ccccc1)C(=O)OCC(C)(C)C (stereo partly drawn) [Compound 14] | – | 4.49 | –
CCOc1nc(N)nc2c1ncn2[C@@H]1O[C@H](CO)[C@@H](O)[C@@]1(C)N=[N+]=[N-] [Compound 8] | – | – | pEC50 [1]: < 4.00
CCOc1nc(N)nc2c1ncn2[C@@H]1O[C@H](COP(=O)(N[C@@H](C)C(=O)OC)Oc2ccccc2Cl)[C@@H](O)[C@@]1(C)N=[N+]=[N-] (single isomer, unassigned) [Compound 310] | 6.03 | – | –
CCOC(=O)[C@H](C)NP(=O)(OC[C@H]1O[C@@H](n2cnc3c(OCC)nc(N)nc32)[C@](C)(N=[N+]=[N-])[C@@H]1O)Oc1ccccc1 (stereo partly drawn) [Compound 558] | 6.00 | – | –
C[C@@]1(N=[N+]=[N-])[C@@H]2OP(=O)(OC3CCCC3)OC[C@H]2O[C@H]1n1ccc(=O)[nH]c1=O (stereo partly drawn) [Compound 87] | – | – | pEC50 [2]: 5.51
CC(C)OC(=O)[C@H](C)NP(=O)(OC[C@H]1O[C@@H](n2ccc(N)nc2=O)[C@](C)(N=[N+]=[N-])[C@@H]1O)Oc1ccc(Cl)c(Cl)c1 (stereo partly drawn) [Compound 195] | – | 7.70 | –
CCOC(=O)[C@H](C)NP(=O)(OC[C@H]1O[C@@H](n2ccc(=O)[nH]c2=O)[C@](C)(N=[N+]=[N-])[C@@H]1O)Oc1ccccc1 (single isomer, unassigned) [Compound 151] | 5.29 | – | –
COC(=O)[C@H](C)NP(=O)(OC[C@H]1O[C@@H](n2ccc(N)nc2=O)[C@](C)(N=[N+]=[N-])[C@@H]1O)Oc1ccccc1Cl (single isomer, unassigned) [Compound 202] | 5.00 | – | –
COC(=O)[C@H](C)NP(=O)(OC[C@H]1O[C@@H](n2cnc3c(OC)nc(N)nc32)[C@](C)(N=[N+]=[N-])[C@@H]1O)Oc1ccccc1Cl (single isomer, unassigned) [Compound 256] | – | 5.85 | –
C[C@H](NP(=O)(OC[C@H]1O[C@@H](n2ccc(N)nc2=O)[C@](C)(N=[N+]=[N-])[C@@H]1O)Oc1ccccc1)C(=O)OC1CCCC1 (stereo partly drawn) [Compound 97] | – | 4.82 | –
CCOc1nc(N)nc2c1ncn2[C@@H]1O[C@H](COP(=O)(N[C@@H](C)C(=O)OC2CCC2)Oc2ccccc2)[C@@H](O)[C@@]1(C)N=[N+]=[N-] (single isomer, unassigned) [Compound 363] | 6.70 | – | –
